Laboratory results from US4020076A, “Novel phosphoryloxy-thiazoles” (priority 1974, dated 1977).
Where two headings read alike, the source gives them in different places.

Experiments:
Format in all cases: in vivo
Blattella germanica = assay: Topical application activity against Blattella germanica; settings: read-out: percent of mortality
Description: b. Activity against Blattella germanica
This test was a topical application in which adult male Blattella germanica received 2 microliters of an acetone solution of the test products between the second and third pair of paws. After this treatment, the test insects were held in a dim light at 20° C and were fed. The results expressed as percent of mortality in Table II were read 24 and 48 hours and 5 days after the treatment.

Aedes aegypti larvae = assay: Activity against Aedes aegypti larvae; settings: for mortality at 0.25 µg/mL: 0.25 mg/l (10^-3 ppm); for mortality at 2.5 µg/mL: 2.5 mg/l (10^-2 ppm); for mortality at 25 µg/mL: 25 mg/l
Description: f. Activity against Aedes aegypti larvae
10 Aedes aegypti larvae in the IV stage in 49 ml of water were added to 200 ml of water and 1 ml of an acetone solution of the test product was added thereto.

Musca domestica = assay: Topical application activity against Musca domestica; settings: read-out: percent of mortality
Description: d. Activity against Musca domestica
This topical application test consisted of placing a microliter of an acetone solution of the test product on the dorsal thorax of Musca domestica after having been put to sleep with ether. The insects were held at 20° C and 50% relative humidity and were fed milk and water.

[1] = test system: Leptinotarsa Decemlineata; assay: Activity against Leptinotarsa Decemlineata larvae; settings: for mortality at 500 µg/mL: 50 g/hl; for mortality at 1000 µg/mL: 100 g/hl
Text: h. Activity againt Leptinotarsa Decemlineata
Eggplant leaves with about 40 cm^ 2 of surface area (10 × 4 cm) were cut out of untreated plants and were washed with water and dried before being immersed for 10 seconds in an acetone solution of the test product. After drying, the leaves were placed in a plastic ventilated dish and 10 larvae of Leptinotarsa Decemlineata in the fourth stage were placed thereon.

Musca domestica larvae = assay: Contact-ingestion test against Musca domestica larvae; settings: read-out: percent of mortality
Description: g. Activity against Musca domestica larvae
This contact-ingestion test consisted of placing 2 ml of an acetone solution of different concentrations of the test product on 1 g of bran placed in a watch glass and the solvent was evaporated. The treated bran was placed in a plastic dish and was admixed with 2 ml of milk. 20 3 to 4 day old larvae of Musca domestica were added to the bran and were held at 20° C and 30% relative humidity and 3 tests were conducted for each concentration.

Drosophila melanogaster = assay: Vapor activity against Drosophila melanogaster; settings: inhaled or nasal, read-out: percentage of mortality
Description: a. Activity against Drosophila melanogaster
This test measures the vapor activity of the compounds and the less than 48 hours old insects were placed in a Petri dish with a 10 cm diameter connected by a tergal screen to a crystallizer of the same diameter in which the test compound in acetone solution is placed. The said solution is evaporated after the insects have been placed and 3 tests with 25 insects were run for each concentration. The results are expressed in Table I as a percentage of mortality after 1, 2, 4 and 6 hours.

[2] = test system: Agrostis Segetum caterpillars; assay: Activity against Agrostis Segetum caterpillars
Description: i. Activity against Agrostis Segetum caterpillars
Larvae of Agrostis Segetum in the fifth stage were placed in small boxes whose bottom (26 cm on a side) is in the form of a square with a height of 20 cm. The boxes were filled with dirt to a height of 8 cm and 5 lettuce plants of about 15 cm high were planted and 10 caterpillars were placed in each box and after 3 hours, the boxes were each sprayed with 5 ml of an aqueous solution of the test product and the percent of efficacy is reported in Table IX.

Spodoptera littoralis = assay: Ingestion test against Spodoptera littoralis caterpillars; settings: po, ingestion, read-out: percent of mortality
Description: e. Activity against Spodoptera littoralis
This test was effected with Spodoptera littoralis caterpillars 1 to 1.5 cm long and an average of 10 days old. In this ingestion test, 4 ml of an acetone solution of the test products was placed on lettuce rings with an 8 mm diameter which were placed in closed plastic dishes with a 5 cm diameter. 15 caterpillars were placed in each dish and were held at 20° C and 50% relative humidity and were fed when the insects had eaten the treated lettuce ring.

Sitophilus granarius = assay: Topical application test against Sitophilus granarius; settings: read-out: percent mortality
Description: c. Test against Sitophilus granarius
This topical application test comprised preparing the test compounds in acetone solution at concentrations of 5000, 500 and 50 mg of the active compound per liter and 0.2 μl of the solutions were applied to the ventral thorax of 50 Sitophilus granarius for each concentration.

[3] = 24 h, read-out: % of mortality after 24 H
[4] = 48 h, read-out: % of mortality after 48 H
[5] = 1 h, read-out: % of mortality after 1 H

CCOc1nc(OP(=S)(OC)OC)c(C#N)s1 [Compound C, 2-ethoxy-4-dimethoxythiophosphoryloxy-5-cyano-thiazole]
mortality at 312.5 ppm (Blattella germanica; 24 H): 80% | mortality at 625 ppm (Blattella germanica; 24 H): 100% | mortality at 1250 ppm (Blattella germanica; 24 H): 100% | mortality at 312.5 ppm (Blattella germanica; 48 H): 80% | mortality at 625 ppm (Blattella germanica; 48 H): 100% | mortality at 1250 ppm (Blattella germanica; 48 H): 100% | mortality at 312.5 ppm (Blattella germanica; 120 h, 5 Days): 80% | mortality at 625 ppm (Blattella germanica; 120 h, 5 Days): 100% | mortality at 1250 ppm (Blattella germanica; 120 h, 5 Days): 100% | mortality at 0.25 µg/mL (Aedes aegypti larvae; [3]): 0% | mortality at 2.5 µg/mL (Aedes aegypti larvae; [3]): 0% | mortality at 25 µg/mL (Aedes aegypti larvae; [3]): 100% | mortality at 0.25 µg/mL (Aedes aegypti larvae; [4]): 0% | mortality at 2.5 µg/mL (Aedes aegypti larvae; [4]): 0% | mortality at 25 µg/mL (Aedes aegypti larvae; [4]): 100% | mortality at 500 ppm (Musca domestica; 1 H, 500 ppm): 100% | mortality at 2500 ppm (Musca domestica; 1 H, 2500 ppm): 100% | mortality at 5000 ppm (Musca domestica; 1 H, 5000 ppm): 100% | mortality at 500 ppm (Musca domestica; 24 h): 97% | mortality at 2500 ppm (Musca domestica; 24 h): 100% | mortality at 5000 ppm (Musca domestica; 24 h): 100% | mortality at 500 µg/mL [1, 5]: 0% | mortality at 1000 µg/mL [1, 5]: 0% | mortality at 500 µg/mL [1, 3]: 40% | mortality at 1000 µg/mL [1, 3]: 100% | mortality at 500 µg/mL [1, 4]: 40% | mortality at 1000 µg/mL [1, 4]: 100% | mortality at 500 ppm (Musca domestica larvae; 48 H): 43% | mortality at 5000 ppm (Musca domestica larvae; 48 H): 53% | mortality at 500 ppm (Musca domestica larvae; 192 h, 8 Days): 63% | mortality at 5000 ppm (Musca domestica larvae; 192 h, 8 Days): 73% | mortality at 5 ppm (Drosophila melanogaster; 1 H): 98% | mortality at 50 ppm (Drosophila melanogaster; 1 H): 100% | mortality at 500 ppm (Drosophila melanogaster; 1 H): 100% | mortality at 5 ppm (Drosophila melanogaster; 4 H): 100% | mortality at 50 ppm (Drosophila melanogaster; 4 H): 100% | mortality at 500 ppm (Drosophila melanogaster; 4 H): 100% | mortality at 5 ppm (Drosophila melanogaster; 6 H): 100% | mortality at 50 ppm (Drosophila melanogaster; 6 H): 100% | mortality at 500 ppm (Drosophila melanogaster; 6 H): 100% | Emax ([2]; 72 h, 50 g/hl, read-out: % efficacy after 3 days): 50% | Emax ([2]; 72 h, 150 g/hl, read-out: % efficacy after 3 days): 80% | Emax ([2]; 72 h, read-out: % efficacy after 3 days, 100 g/hl): 25% | Emax ([2]; 120 h, 50 g/hl, read-out: % efficacy after 5 days): 100% | Emax ([2]; 120 h, 150 g/hl, read-out: % efficacy after 5 days): 100% | Emax ([2]; 120 h, read-out: % efficacy after 5 days, 100 g/hl): 50% | Emax ([2]; 168 h, 50 g/hl, read-out: % efficacy after 7 days): 100% | Emax ([2]; 168 h, 150 g/hl, read-out: % efficacy after 7 days): 100% | Emax ([2]; 168 h, read-out: % efficacy after 7 days, 100 g/hl): 100% | mortality at 125 ppm (Spodoptera littoralis; 1 H): 0% | mortality at 250 ppm (Spodoptera littoralis; 1 H): 0% | mortality at 500 ppm (Spodoptera littoralis; 1 H): 0% | mortality at 125 ppm (Spodoptera littoralis; 24 H): 70% | mortality at 250 ppm (Spodoptera littoralis; 24 H): 80% | mortality at 500 ppm (Spodoptera littoralis; 24 H): 100% | mortality at 125 ppm (Spodoptera littoralis; 48 H): 70% | mortality at 250 ppm (Spodoptera littoralis; 48 H): 80% | mortality at 500 ppm (Spodoptera littoralis; 48 H): 100% | mortality at 50 ppm (Sitophilus granarius; 4 H): 0% | mortality at 500 ppm (Sitophilus granarius; 4 H): 0% | mortality at 5000 ppm (Sitophilus granarius; 4 H): 100% | mortality at 50 ppm (Sitophilus granarius; 24 H): 0% | mortality at 500 ppm (Sitophilus granarius; 24 H): 54% | mortality at 5000 ppm (Sitophilus granarius; 24 H): 100% | mortality at 50 ppm (Sitophilus granarius; 120 h, 5 Days): 0% | mortality at 500 ppm (Sitophilus granarius; 120 h, 5 Days): 96% | mortality at 5000 ppm (Sitophilus granarius; 120 h, 5 Days): 100%
